Patent US20230074545A1, “TREATMENT OF CANCER WITH CDK12/13 INHIBITORS” (Kinnate Biopharma Inc., priority 2019, published 2023)

Experiments:
Assay in all cases: Radiometric kinase panel
Type in all cases: biochemical
RPS6KA4 = target: T1, RPS6KA4 (Homo sapiens, UniProt O75676)
T1 construct: either as full-length or enzymatically active fragments; purchased ProQinase GmbH (Reaction Biology)
Summary of the method: (§1)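 Activity was measured radiometrically from [gamma-33P]-ATP incorporation into substrate. The kinases were recombinant human GST- or His-tagged proteins, full-length or active fragments, expressed in Sf9 or E. coli. Compound in 10% DMSO was added before the enzyme/substrate mix, which started the reaction.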

HIPK2 = target: T2, HIPK2 (Homo sapiens, UniProt Q9H2X6)
T2 construct: purchased ProQinase GmbH (Reaction Biology)
Summary of the method: as §1

PKCiota = target: T3, PKCiota (Homo sapiens, UniProt P41743)
T3 construct: either as full-length or enzymatically active fragments; purchased ProQinase GmbH (Reaction Biology)
Summary of the method: as §1

FGFR3 = target: T4, FGFR3 (Homo sapiens, UniProt P22607)
T4 construct: either as full-length or enzymatically active fragments; purchased ProQinase GmbH (Reaction Biology); host or cells: Sf9 insect cells or E. coli
Summary of the method: as §1

TGFBR1 = target: T5, TGFBR1 (Homo sapiens, UniProt P36897)
T5 construct: either as full-length or enzymatically active fragments; purchased ProQinase GmbH (Reaction Biology)
Summary of the method: as §1

MAPKAPK2 = target: T6, MAPKAPK2 (Homo sapiens, UniProt P49137)
T6 construct: either as full-length or enzymatically active fragments; purchased ProQinase GmbH (Reaction Biology); host or cells: Sf9 insect cells or E. coli
Summary of the method: as §1

ROS = target: T7, ROS (Homo sapiens, UniProt P08922)
T7 construct: either as full-length or enzymatically active fragments; purchased ProQinase GmbH (Reaction Biology)
Summary of the method: as §1

CK1gamma3 = target: T8, CK1gamma3 (Homo sapiens, UniProt Q9Y6M4)
T8 construct: either as full-length or enzymatically active fragments; purchased ProQinase GmbH (Reaction Biology)
Summary of the method: as §1

GRK5 = target: T9, GRK5 (Homo sapiens, UniProt P34947)
T9 construct: either as full-length or enzymatically active fragments; purchased ProQinase GmbH (Reaction Biology)
Summary of the method: as §1

PKCtheta = target: T10, PKCtheta (Homo sapiens, UniProt Q04759)
T10 construct: purchased ProQinase GmbH (Reaction Biology); host or cells: Sf9 insect cells or E. coli (not specified per kinase)
Summary of the method: as §1

PKCbeta2 = target: T11, PKCbeta2 (Homo sapiens, UniProt P05771)
T11 construct: either as full-length or enzymatically active fragments; purchased ProQinase GmbH (Reaction Biology)
Summary of the method: as §1

VEGFR3 = target: T12, VEGFR3 (Homo sapiens, UniProt P35916)
T12 construct: either as full-length or enzymatically active fragments; purchased ProQinase GmbH (Reaction Biology)
Summary of the method: as §1

PKCgamma = target: T13, PKCgamma (Homo sapiens, UniProt P05129)
T13 construct: either as full-length or enzymatically active fragments; purchased ProQinase GmbH (Reaction Biology)
Summary of the method: as §1

EPHB2 = target: T14, EPHB2 (Homo sapiens, UniProt P29323)
T14 construct: purchased ProQinase GmbH (Reaction Biology); host or cells: Sf9 insect cells or E. coli (not specified per kinase)
Summary of the method: as §1

PAK3 = target: T15, PAK3 (Homo sapiens, UniProt O75914)
T15 construct: purchased ProQinase GmbH (Reaction Biology); host or cells: Sf9 insect cells or E. coli (not specified per kinase)
Summary of the method: as §1

EEF2K = target: T16, EEF2K (Homo sapiens, UniProt O00418)
T16 construct: either as full-length or enzymatically active fragments; purchased ProQinase GmbH (Reaction Biology)
Summary of the method: as §1

PKCbeta1 = target: T17, PKCbeta1 (Homo sapiens, UniProt P05771)
T17 construct: either as full-length or enzymatically active fragments; purchased ProQinase GmbH (Reaction Biology)
Summary of the method: as §1

SGK2 = target: T18, SGK2 (Homo sapiens, UniProt Q9HBY8)
T18 construct: purchased ProQinase GmbH (Reaction Biology); host or cells: Sf9 insect cells or E. coli (not specified per kinase)
Summary of the method: as §1

CDK1/CycB1 = target: T19, CDK1/CycB1 (Homo sapiens, UniProt P06493)
T19 construct: either as full-length or enzymatically active fragments; purchased ProQinase GmbH (Reaction Biology); host or cells: Sf9 insect cells or E. coli
Summary of the method: as §1

CAMK2G = target: T20, CAMK2G (Homo sapiens, UniProt Q13555)
T20 construct: either as full-length or enzymatically active fragments; purchased ProQinase GmbH (Reaction Biology)
Summary of the method: as §1

PKA = target: T21, PKA (Homo sapiens, UniProt P17612)
T21 construct: either as full-length or enzymatically active fragments; purchased ProQinase GmbH (Reaction Biology); host or cells: Sf9 insect cells or E. coli
Summary of the method: as §1

CAMKK1 = target: T22, CAMKK1 (Homo sapiens, UniProt Q8N5S9)
T22 construct: either as full-length or enzymatically active fragments; purchased ProQinase GmbH (Reaction Biology)
Summary of the method: as §1

CDK4/CycD1 = target: T23, CDK4/CycD1 (Homo sapiens, UniProt P11802)
T23 construct: either as full-length or enzymatically active fragments; purchased ProQinase GmbH (Reaction Biology); host or cells: Sf9 insect cells or E. coli (not specified per kinase)
Summary of the method: as §1

PASK = target: T24, PASK (Homo sapiens, UniProt Q96RG2)
T24 construct: either as full-length or enzymatically active fragments; purchased ProQinase GmbH (Reaction Biology)
Summary of the method: as §1

MAP4K4 = target: T25, MAP4K4 (Homo sapiens, UniProt O95819)
T25 construct: purchased ProQinase GmbH (Reaction Biology)
Summary of the method: as §1

BTK = target: T26, BTK (Homo sapiens, UniProt Q06187)
T26 construct: purchased ProQinase GmbH (Reaction Biology); host or cells: Sf9 insect cells or E. coli (not specified per kinase)
Summary of the method: as §1

LIMK2 = target: T27, LIMK2 (Homo sapiens, UniProt P53671)
T27 construct: either as full-length or enzymatically active fragments; purchased ProQinase GmbH (Reaction Biology)
Summary of the method: as §1

CK1gamma1 = target: T28, CK1gamma1 (Homo sapiens, UniProt Q9HCP0)
T28 construct: either as full-length or enzymatically active fragments; purchased ProQinase GmbH (Reaction Biology)
Summary of the method: as §1

EPHB1 = target: T29, EPHB1 (Homo sapiens, UniProt P54762)
T29 construct: either as full-length or enzymatically active fragments; purchased ProQinase GmbH (Reaction Biology)
Summary of the method: as §1

ERK7 = target: T30, ERK7 (Homo sapiens, UniProt Q8TD08)
T30 construct: either as full-length or enzymatically active fragments; purchased ProQinase GmbH (Reaction Biology)
Summary of the method: as §1

PAK7 = target: T31, PAK7 (Homo sapiens, UniProt Q9P286)
T31 construct: either as full-length or enzymatically active fragments; purchased ProQinase GmbH (Reaction Biology); host or cells: Sf9 insect cells or E. coli
Summary of the method: as §1

T26 sequence (Q06187 whole entry): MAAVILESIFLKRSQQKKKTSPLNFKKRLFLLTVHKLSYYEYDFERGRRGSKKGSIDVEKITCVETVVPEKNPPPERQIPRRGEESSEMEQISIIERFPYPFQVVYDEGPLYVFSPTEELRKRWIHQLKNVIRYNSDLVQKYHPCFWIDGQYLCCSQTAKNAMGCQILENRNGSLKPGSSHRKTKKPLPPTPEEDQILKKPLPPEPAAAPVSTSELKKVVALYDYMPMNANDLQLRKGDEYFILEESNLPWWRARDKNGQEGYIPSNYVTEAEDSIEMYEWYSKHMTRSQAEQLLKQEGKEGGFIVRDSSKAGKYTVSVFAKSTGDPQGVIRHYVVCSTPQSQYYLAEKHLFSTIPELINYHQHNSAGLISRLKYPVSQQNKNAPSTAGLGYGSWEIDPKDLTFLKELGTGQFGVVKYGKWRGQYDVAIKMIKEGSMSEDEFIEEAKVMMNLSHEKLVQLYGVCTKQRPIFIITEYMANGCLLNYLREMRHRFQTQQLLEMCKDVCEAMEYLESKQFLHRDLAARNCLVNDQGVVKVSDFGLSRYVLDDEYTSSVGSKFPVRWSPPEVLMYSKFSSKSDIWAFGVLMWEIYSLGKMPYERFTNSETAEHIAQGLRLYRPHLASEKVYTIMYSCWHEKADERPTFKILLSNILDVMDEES
T7 sequence (P08922 28-2347): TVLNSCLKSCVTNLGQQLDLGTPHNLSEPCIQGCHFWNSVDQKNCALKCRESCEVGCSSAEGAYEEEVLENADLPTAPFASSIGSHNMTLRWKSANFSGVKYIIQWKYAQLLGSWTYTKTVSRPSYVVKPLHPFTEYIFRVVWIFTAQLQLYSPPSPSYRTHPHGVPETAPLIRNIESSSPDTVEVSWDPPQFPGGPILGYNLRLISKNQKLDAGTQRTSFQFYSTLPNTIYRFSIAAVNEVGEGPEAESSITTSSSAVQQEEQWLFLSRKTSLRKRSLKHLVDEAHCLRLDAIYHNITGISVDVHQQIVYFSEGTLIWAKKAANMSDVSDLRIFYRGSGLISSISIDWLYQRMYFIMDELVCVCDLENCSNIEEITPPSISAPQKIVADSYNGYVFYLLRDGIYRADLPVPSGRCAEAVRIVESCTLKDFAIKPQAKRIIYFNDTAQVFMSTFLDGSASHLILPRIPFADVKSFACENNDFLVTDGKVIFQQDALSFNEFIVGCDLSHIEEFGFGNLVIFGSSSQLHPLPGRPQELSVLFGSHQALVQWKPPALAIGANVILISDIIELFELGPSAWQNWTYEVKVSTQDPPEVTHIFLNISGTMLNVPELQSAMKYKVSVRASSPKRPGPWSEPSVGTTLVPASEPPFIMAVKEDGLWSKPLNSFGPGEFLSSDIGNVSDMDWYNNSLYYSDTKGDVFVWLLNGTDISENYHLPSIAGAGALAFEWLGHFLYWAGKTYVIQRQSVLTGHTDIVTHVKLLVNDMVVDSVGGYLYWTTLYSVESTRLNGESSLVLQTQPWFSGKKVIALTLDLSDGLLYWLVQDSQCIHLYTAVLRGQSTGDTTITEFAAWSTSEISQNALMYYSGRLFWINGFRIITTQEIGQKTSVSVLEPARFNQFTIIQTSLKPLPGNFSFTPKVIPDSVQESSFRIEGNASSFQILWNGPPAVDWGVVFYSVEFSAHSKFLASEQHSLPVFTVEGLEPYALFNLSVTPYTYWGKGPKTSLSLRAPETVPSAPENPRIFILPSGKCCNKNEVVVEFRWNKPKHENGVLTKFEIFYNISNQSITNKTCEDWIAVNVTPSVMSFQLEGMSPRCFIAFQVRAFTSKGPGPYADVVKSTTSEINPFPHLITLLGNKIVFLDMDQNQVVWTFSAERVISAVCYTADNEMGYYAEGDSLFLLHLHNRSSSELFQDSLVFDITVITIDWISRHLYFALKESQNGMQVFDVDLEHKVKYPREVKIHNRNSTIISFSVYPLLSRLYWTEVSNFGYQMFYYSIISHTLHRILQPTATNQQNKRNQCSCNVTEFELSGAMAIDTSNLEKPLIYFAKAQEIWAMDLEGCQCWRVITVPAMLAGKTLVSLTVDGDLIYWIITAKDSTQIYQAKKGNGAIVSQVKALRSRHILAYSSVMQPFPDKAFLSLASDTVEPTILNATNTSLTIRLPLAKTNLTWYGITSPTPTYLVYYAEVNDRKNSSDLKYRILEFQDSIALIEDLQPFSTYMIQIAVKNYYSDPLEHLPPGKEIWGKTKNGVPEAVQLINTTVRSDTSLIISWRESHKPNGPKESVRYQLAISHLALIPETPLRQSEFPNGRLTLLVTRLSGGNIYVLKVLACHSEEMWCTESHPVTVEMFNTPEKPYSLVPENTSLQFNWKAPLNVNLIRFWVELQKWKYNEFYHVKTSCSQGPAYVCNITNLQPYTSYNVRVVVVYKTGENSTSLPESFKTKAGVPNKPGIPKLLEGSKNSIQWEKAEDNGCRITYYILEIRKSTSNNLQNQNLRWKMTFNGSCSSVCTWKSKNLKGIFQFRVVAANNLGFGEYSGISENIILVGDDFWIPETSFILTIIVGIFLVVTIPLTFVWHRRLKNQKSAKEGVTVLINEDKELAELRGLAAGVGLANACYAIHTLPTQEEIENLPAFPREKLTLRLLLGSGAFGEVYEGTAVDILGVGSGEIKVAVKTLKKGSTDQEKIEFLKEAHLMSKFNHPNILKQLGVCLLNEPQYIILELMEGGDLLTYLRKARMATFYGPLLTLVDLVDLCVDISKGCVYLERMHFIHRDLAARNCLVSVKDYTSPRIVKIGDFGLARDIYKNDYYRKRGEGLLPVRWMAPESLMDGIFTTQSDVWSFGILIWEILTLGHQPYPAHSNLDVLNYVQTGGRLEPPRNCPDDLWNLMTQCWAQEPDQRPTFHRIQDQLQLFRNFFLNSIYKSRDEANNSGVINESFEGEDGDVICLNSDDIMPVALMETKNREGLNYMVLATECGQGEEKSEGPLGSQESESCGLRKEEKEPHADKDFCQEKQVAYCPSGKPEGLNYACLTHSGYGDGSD
T22 sequence (Q8N5S9 whole entry, the tested form may be a part): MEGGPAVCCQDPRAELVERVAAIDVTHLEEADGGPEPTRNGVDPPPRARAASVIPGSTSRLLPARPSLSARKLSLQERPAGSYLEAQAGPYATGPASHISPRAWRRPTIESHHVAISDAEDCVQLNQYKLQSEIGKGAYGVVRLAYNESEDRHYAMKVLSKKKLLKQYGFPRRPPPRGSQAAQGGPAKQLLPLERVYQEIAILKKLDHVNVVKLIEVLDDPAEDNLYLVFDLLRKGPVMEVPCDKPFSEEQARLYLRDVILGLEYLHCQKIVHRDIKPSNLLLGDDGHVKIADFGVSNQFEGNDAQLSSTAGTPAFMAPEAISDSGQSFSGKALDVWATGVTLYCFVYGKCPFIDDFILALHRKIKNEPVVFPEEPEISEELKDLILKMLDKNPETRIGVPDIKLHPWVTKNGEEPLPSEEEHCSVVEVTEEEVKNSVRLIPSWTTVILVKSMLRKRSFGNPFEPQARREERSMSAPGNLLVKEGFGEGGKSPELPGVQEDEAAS
T1 sequence (O75676 whole entry, the tested form may be a part): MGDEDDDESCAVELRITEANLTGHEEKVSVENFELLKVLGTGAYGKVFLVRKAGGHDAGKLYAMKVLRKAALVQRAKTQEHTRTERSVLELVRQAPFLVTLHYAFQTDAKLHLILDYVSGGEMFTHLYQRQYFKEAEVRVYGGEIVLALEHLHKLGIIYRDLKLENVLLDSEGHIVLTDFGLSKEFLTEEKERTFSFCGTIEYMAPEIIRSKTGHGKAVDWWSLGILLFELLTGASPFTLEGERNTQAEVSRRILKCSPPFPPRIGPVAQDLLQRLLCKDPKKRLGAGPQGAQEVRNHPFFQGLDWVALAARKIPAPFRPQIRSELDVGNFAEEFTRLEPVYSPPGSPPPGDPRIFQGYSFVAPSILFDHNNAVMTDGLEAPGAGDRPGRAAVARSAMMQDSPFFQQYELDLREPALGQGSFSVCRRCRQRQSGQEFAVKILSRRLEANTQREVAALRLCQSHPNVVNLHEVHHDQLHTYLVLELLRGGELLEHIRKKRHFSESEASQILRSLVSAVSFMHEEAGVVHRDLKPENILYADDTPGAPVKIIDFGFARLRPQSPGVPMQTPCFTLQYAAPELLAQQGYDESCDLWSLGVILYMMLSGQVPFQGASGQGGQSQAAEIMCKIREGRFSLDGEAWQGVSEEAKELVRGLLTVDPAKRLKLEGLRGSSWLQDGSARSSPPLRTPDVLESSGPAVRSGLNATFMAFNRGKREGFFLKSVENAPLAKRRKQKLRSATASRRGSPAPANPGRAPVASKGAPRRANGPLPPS

Q: Which inhibition at 1 µM (RPS6KA4) does the source give for `C=CC(=O)Nc1ccc(C(=O)N2CC[C@@H](Nc3ncc(C#N)cn3)C2)cc1` [Compound 4, (R)-N-(4-(3-((5-cyanopyrimidin-2-yl)amino)pyrrolidine-1-carbonyl)phenyl)acrylamide] here?
A: The inhibition at 1 µM was 5%.

Q: What about the inhibition at 1 µM (HIPK2) of the same molecule?
A: Its inhibition at 1 µM is 0%.

Q: And the inhibition at 1 µM (PKCiota)?
A: The inhibition at 1 µM was -4%.

Q: And the inhibition at 1 µM (FGFR3)?
A: The inhibition at 1 µM was -16%.

Q: And the inhibition at 1 µM (TGFBR1)?
A: Its inhibition at 1 µM is 7%.

Q: What about the inhibition at 1 µM (MAPKAPK2) of the same molecule?
A: The inhibition at 1 µM was -24%.

Q: And the inhibition at 1 µM (ROS)?
A: Its inhibition at 1 µM is 2%.

Q: And the inhibition at 1 µM (CK1gamma3)?
A: Its inhibition at 1 µM is -8%.

Q: And the inhibition at 1 µM (GRK5)?
A: The inhibition at 1 µM was -6%.

Q: And the inhibition at 1 µM (PKCtheta)?
A: Its inhibition at 1 µM is 1%.

Q: And the inhibition at 1 µM (PKCbeta2)?
A: The inhibition at 1 µM was 7%.

Q: And the inhibition at 1 µM (VEGFR3)?
A: Its inhibition at 1 µM is -5%.

Q: And the inhibition at 1 µM (PKCgamma)?
A: Its inhibition at 1 µM is -9%.

Q: What about the inhibition at 1 µM (EPHB2) of the same molecule?
A: Its inhibition at 1 µM is 1%.

Q: And the inhibition at 1 µM (PAK3)?
A: The inhibition at 1 µM was 1%.

Q: What about the inhibition at 1 µM (EEF2K) of the same molecule?
A: Its inhibition at 1 µM is 15%.

Q: What about the inhibition at 1 µM (PKCbeta1) of the same molecule?
A: The inhibition at 1 µM was 4%.

Q: What about the inhibition at 1 µM (SGK2) of the same molecule?
A: Its inhibition at 1 µM is 1%.

Q: And the inhibition at 1 µM (CDK1/CycB1)?
A: The inhibition at 1 µM was 13%.

Q: And the inhibition at 1 µM (CAMK2G)?
A: Its inhibition at 1 µM is 5%.

Q: What about the inhibition at 1 µM (PKA) of the same molecule?
A: The inhibition at 1 µM was 13%.

Q: And the inhibition at 1 µM (CAMKK1)?
A: Its inhibition at 1 µM is 3%.

Q: What about the inhibition at 1 µM (CDK4/CycD1) of the same molecule?
A: Its inhibition at 1 µM is 9%.

Q: What about the inhibition at 1 µM (PASK) of the same molecule?
A: The inhibition at 1 µM was -5%.

Q: What about the inhibition at 1 µM (MAP4K4) of the same molecule?
A: Its inhibition at 1 µM is 0%.

Q: And the inhibition at 1 µM (BTK)?
A: Its inhibition at 1 µM is 1%.

Q: What about the inhibition at 1 µM (LIMK2) of the same molecule?
A: Its inhibition at 1 µM is -3%.

Q: And the inhibition at 1 µM (CK1gamma1)?
A: Its inhibition at 1 µM is -11%.

Q: What about the inhibition at 1 µM (EPHB1) of the same molecule?
A: The inhibition at 1 µM was -3%.

Q: What about the inhibition at 1 µM (ERK7) of the same molecule?
A: Its inhibition at 1 µM is 17%.

Q: And the inhibition at 1 µM (PAK7)?
A: Its inhibition at 1 µM is 12%.
